According to the NIST ThermoML archive (doi:10.1007/s10765-009-0579-1):
Numbers after ± are expanded uncertainties.

Assay: xn = mol fraction of the nth substance listed
Conditions: Gas; for viscosity: Oscillating disk viscometry; for mass density: Pycnometric method

CC(F)(F)Cl [1-chloro-1,1-difluoroethane] + FC(F)Cl
Conditions	mass density, 348.15 K [kg/m3]	mass density, 373.15 K [kg/m3]	viscosity, 348.15 K [mPa·s]	viscosity, 373.15 K [mPa·s]
101.5 kPa, x2 = 0.5169	–	3.079 ± 0.23	–	0.01451 ± 0.00049
102.1 kPa, x2 = 0.7502	–	2.984 ± 0.23	–	0.01518 ± 0.00051
102.2 kPa, x2 = 0.2615	–	3.224 ± 0.23	–	0.01377 ± 0.00047
245.8 kPa, x2 = 0.7502	–	7.266 ± 0.23	–	0.01517 ± 0.00051
294.3 kPa, x2 = 0.5169	–	9.101 ± 0.23	–	0.01449 ± 0.00049
298.2 kPa, x2 = 0.2615	–	9.612 ± 0.23	–	0.0138 ± 0.00048
390.1 kPa, x2 = 0.7502	–	11.68 ± 0.23	–	0.0152 ± 0.00051
490 kPa, x2 = 0.5169	–	15.46 ± 0.23	–	0.01452 ± 0.00049
493.6 kPa, x2 = 0.2615	–	16.27 ± 0.23	–	0.01381 ± 0.00048
583.4 kPa, x2 = 0.7502	–	17.74 ± 0.23	–	0.01521 ± 0.00051
686.2 kPa, x2 = 0.5169	–	22.09 ± 0.23	–	0.01454 ± 0.00049
695.2 kPa, x2 = 0.2615	–	23.4 ± 0.23	–	0.01381 ± 0.00048
736.9 kPa, x2 = 0.2615	27.57 ± 0.21	–	0.01297 ± 0.00046	–
781.7 kPa, x2 = 0.5169	27.87 ± 0.21	–	0.01358 ± 0.00047	–
782.5 kPa, x2 = 0.7502	26.5 ± 0.21	–	0.01425 ± 0.00049	–
782.8 kPa, x2 = 0.7502	–	24.22 ± 0.23	–	0.01526 ± 0.00051
876.7 kPa, x2 = 0.2615	–	30.25 ± 0.24	–	0.01387 ± 0.00048
879 kPa, x2 = 0.5169	–	28.79 ± 0.23	–	0.01458 ± 0.00049
887.3 kPa, x2 = 0.2615	34.14 ± 0.21	–	0.01301 ± 0.00046	–
889.8 kPa, x2 = 0.2615	–	30.77 ± 0.24	–	0.01388 ± 0.00048
925.6 kPa, x2 = 0.7502	31.97 ± 0.21	–	0.01428 ± 0.00049	–
930.2 kPa, x2 = 0.5169	33.93 ± 0.21	–	0.01365 ± 0.00047	–
978.5 kPa, x2 = 0.7502	–	30.82 ± 0.23	–	0.0153 ± 0.00051
1036 kPa, x2 = 0.2615	40.96 ± 0.21	–	0.01302 ± 0.00046	–
1077 kPa, x2 = 0.5169	40.31 ± 0.21	–	0.01365 ± 0.00047	–
1080 kPa, x2 = 0.5169	–	36.34 ± 0.23	–	0.01464 ± 0.0005
1085 kPa, x2 = 0.2615	–	38.57 ± 0.23	–	0.01394 ± 0.00048
1090 kPa, x2 = 0.7502	38.36 ± 0.21	–	0.0143 ± 0.00049	–
1173 kPa, x2 = 0.7502	–	37.6 ± 0.23	–	0.01535 ± 0.00051
1182 kPa, x2 = 0.2615	48.22 ± 0.22	–	0.01307 ± 0.00046	–
1240 kPa, x2 = 0.7502	44.53 ± 0.21	–	0.01438 ± 0.00049	–
1262 kPa, x2 = 0.5169	48.67 ± 0.21	–	0.0137 ± 0.00047	–
1277 kPa, x2 = 0.5169	–	43.98 ± 0.23	–	0.01476 ± 0.0005
1281 kPa, x2 = 0.2615	–	46.94 ± 0.23	–	0.01403 ± 0.00048
1334 kPa, x2 = 0.2615	56.48 ± 0.22	–	0.01312 ± 0.00046	–
1361 kPa, x2 = 0.7502	–	44.52 ± 0.23	–	0.01542 ± 0.00051
1392 kPa, x2 = 0.7502	51.21 ± 0.21	–	0.01443 ± 0.00049	–
1408 kPa, x2 = 0.5169	56 ± 0.22	–	0.01377 ± 0.00047	–
1472 kPa, x2 = 0.5169	–	51.98 ± 0.23	–	0.0148 ± 0.0005
1483 kPa, x2 = 0.2615	–	56.2 ± 0.24	–	0.01413 ± 0.00048
1489 kPa, x2 = 0.2615	65.73 ± 0.22	–	0.01325 ± 0.00046	–
1541 kPa, x2 = 0.7502	58.1 ± 0.21	–	0.0145 ± 0.00049	–
1552 kPa, x2 = 0.5169	63.84 ± 0.22	–	0.01386 ± 0.00048	–
1565 kPa, x2 = 0.7502	–	52.28 ± 0.23	–	0.0155 ± 0.00052
1666 kPa, x2 = 0.5169	–	60.38 ± 0.24	–	0.01486 ± 0.0005
1683 kPa, x2 = 0.7502	64.7 ± 0.22	–	0.01457 ± 0.00049	–
1689 kPa, x2 = 0.2615	–	66.3 ± 0.24	–	0.01426 ± 0.00049
1760 kPa, x2 = 0.7502	–	60.2 ± 0.24	–	0.01559 ± 0.00052
1862 kPa, x2 = 0.5169	–	69.61 ± 0.24	–	0.01502 ± 0.0005
1897 kPa, x2 = 0.2615	–	77.72 ± 0.24	–	0.01439 ± 0.00049
1952 kPa, x2 = 0.7502	–	68.25 ± 0.24	–	0.01568 ± 0.00052
2065 kPa, x2 = 0.5169	–	80.02 ± 0.24	–	0.01509 ± 0.00051
2115 kPa, x2 = 0.2615	–	91.26 ± 0.25	–	0.01461 ± 0.00049
2190 kPa, x2 = 0.7502	–	79.1 ± 0.24	–	0.01586 ± 0.00052
2295 kPa, x2 = 0.5169	–	92.76 ± 0.24	–	0.01537 ± 0.00051
2299 kPa, x2 = 0.2615	–	104.3 ± 0.3	–	0.01486 ± 0.0005
2398 kPa, x2 = 0.7502	–	89.07 ± 0.24	–	0.01602 ± 0.00053
2448 kPa, x2 = 0.5169	–	102 ± 0.3	–	0.01542 ± 0.00051
2467 kPa, x2 = 0.2615	–	117.9 ± 0.3	–	0.01516 ± 0.00051
